These results are taken from patent US8802724B2, “Processes and intermediates for preparing substituted hexahydrofuro [2,3-b] furans” (Purdue Research Foundation, priority 2010, dated 2014).

One assay deals with HIV-1 protease (Human immunodeficiency virus type 1 group M subtype B (isolate HXB2) (HIV-1), UniProt P04585). The experiment in a line: biochemical. The note with it: enzymatic inhibitory activity.
The test system of another assay is HIV-1LAI. In words: Antiviral MTT assay, MT-2 cells exposed to HIV-1LAI. Format: cell-based. The note with it: Human immunodeficiency virus 1, MT2. As for the experimental part:
As shown in Scheme 4, alcohols 14, 15, 20, and 21 were activated with p-nitrophenyl chloroformate to provide mixed activated carbonates 21a-d. These carbonates were reacted with amine 22 to afford HIV-1 protease inhibitors 23a-d. These inhibitors were evaluated for their activity in both enzyme inhibitory and antiviral assays. The enzyme inhibitory activity (Ki) was determined according to an assay protocol reported by Toth and Marshall (Toth, M. V.; Marshall, G. R. Int. J. Pep. Protein Res. 1990, 36, 544-550). […] Antiviral IC50 values were determined using the MTT assay (Koh, Y., et al., Antimicrob. Agents Chemother. 2003, 47, 3123-3129.).

Read-outs that look alike come from different tables or passages of the source.

`COc1ccc(S(=O)(=O)N(CC(C)C)C[C@@H](O)[C@H](Cc2ccccc2)NC(=O)O[C@H]2CO[C@H]3OC[C@@H](OC)[C@H]32)cc1` [Compound 23a, (3R,3aS,4S,6aR)-4-methoxyhexahydrofuro[2,3-b]furan-3-yl-(2S,3R)-3-hydroxy-4-(N-isobutyl-4-methoxyphenylsulfonamido)-1-phenylbutan-2-ylcarbamate] returned a Ki at HIV-1 protease of 0.035 nM. This compound registered an IC50 in the assay on HIV-1LAI of 56 nM.

At HIV-1 protease, `COc1ccc(S(=O)(=O)N(CC(C)C)C[C@@H](O)[C@H](Cc2ccccc2)NC(=O)O[C@H]2CO[C@H]3OC[C@@H](OCc4ccccc4)[C@H]32)cc1` [Compound 23b, (3R,3aS,4S,6aR)-4-(benzyloxy)hexahydrofuro[2,3-b]furan-3-yl-(2S,3R)-3-hydroxy-4-(N-isobutyl-4-methoxyphenylsulfonamido)-1-phenylbutan-2-ylcarbamate] returned a Ki of 0.073 nM. In the assay with HIV-1LAI, this compound returned an IC50 of 335 nM.

On to `COc1ccc(S(=O)(=O)N(CC(C)C)C[C@@H](O)[C@H](Cc2ccccc2)NC(=O)O[C@H]2CO[C@H]3OC[C@H](OC)[C@H]32)cc1` [Compound 23c, (3R,3aS,4R,6aR)-4-methoxyhexahydrofuro[2,3-b]furan-3-yl-(2S,3R)-3-hydroxy-4-(N-isobutyl-4-methoxyphenylsulfonamido)-1-phenylbutan-2-ylcarbamate], for which the Ki on HIV-1 protease stood at 0.0029 nM. Also, in the assay with HIV-1LAI, the IC50 worked out at 2.4 nM.

Regarding `COc1ccc(S(=O)(=O)N(CC(C)C)C[C@@H](O)[C@H](Cc2ccccc2)NC(=O)O[C@H]2CO[C@H]3OC[C@H](OCc4ccccc4)[C@H]32)cc1` [Compound 23d, (3R,3aS,4R,6aR)-4-(benzyloxy)hexahydrofuro[2,3-b]furan-3-yl-(2S,3R)-3-hydroxy-4-(N-isobutyl-4-methoxyphenylsulfonamido)-1-phenylbutan-2-ylcarbamate], the Ki at HIV-1 protease was 0.3 nM.

Consider `COc1ccc(S(=O)(=O)N(CC(C)C)C[C@@H](O)[C@H](Cc2ccccc2)NC(=O)O[C@H]2CO[C@H]3OCC[C@H]32)cc1` [Entry 1, reference compound], for which the IC50 with HIV-1LAI (Human T-lymphoid (MT-2) cells exposed to 100 TCID50 of HIV-1LAI, MTT assay, means of at least three experiments, read-out: IC50) was determined as 1.4 nM.

For orientation: Ki means a measure of affinity in units of concentration, obtained from inhibition or displacement. The IC50 is the concentration needed to halve the response being measured.
